DBAASP
Values after ≈ are worked out from the molar mass of the structure shown. One block for each compound: values may come before it.

Experiments:
Experiment in all cases: ≥ marks a high value that may be exact or a test limit, other limits are often not marked, values filed in µg/mL are converted to µM
[1] = test system: Staphylococcus aureus ATCC 25923
[2] = test system: Escherichia coli K99
[3] = test system: Escherichia coli UB1005
[4] = test system: Salmonella enterica subsp. enterica serovar Pullorum ATCC 7913
[5] = test system: Salmonella enterica subsp. enterica serovar Typhimurium ATCC 14028
[6] = test system: Escherichia coli 078
[7] = test system: Candida parapsilosis CGMCC 2.3989
[8] = test system: Staphylococcus epidermidis ATCC 12228
[9] = test system: Pseudomonas aeruginosa ATCC 27853
[10] = test system: Escherichia coli K88
[11] = test system: Staphylococcus aureus ATCC 43300
[12] = test system: Candida tropicalis CGMCC 2.1975
[13] = test system: Salmonella enterica subsp. enterica serovar Typhimurium C77-31
[14] = test system: Staphylococcus aureus CCARM 3518
[15] = test system: Staphylococcus aureus CCARM 3090
[16] = test system: Pseudomonas aeruginosa 4891
[17] = test system: Listeria monocytogenes KCTC 3710
[18] = test system: Pseudomonas aeruginosa 4007
[19] = test system: Bacillus subtilis KCTC 1998
[20] = test system: Candida albicans KCTC 7270
[21] = test system: Trichosporon beigelii KCTC 7707
[22] = test system: Escherichia coli ATCC 25922
[23] = test system: Escherichia coli CCARM 1238
[24] = test system: Salmonella typhimurium KCTC 1926
[25] = test system: Escherichia coli CCARM 1229
[26] = test system: Escherichia coli NCTC 10418
[27] = test system: Staphylococcus aureus NCTC 10788
[28] = test system: Klebsiella pneumoniae ATCC 43816
[29] = test system: Staphylococcus aureus NCTC 12493
[30] = test system: Enterococcus faecalis NCTC 12697
[31] = test system: Candida albicans NCYC 1467
[32] = test system: Staphylococcus aureus
[33] = test system: Salmonella enterica subsp. enterica serovar Pullorum C79-13
[34] = test system: Streptococcus agalactiae
[35] = test system: Staphylococcus aureus ATCC 29213
[36] = test system: Salmonella enterica subsp. enterica serovar Choleraesuis CVCC 503
[37] = test system: Enterococcus faecalis ATCC 29212
[38] = test system: Candida albicans ATCC 10231
[39] = test system: Staphylococcus aureus ATCC 33591
[40] = test system: Pseudomonas aeruginosa ATCC 10145
[41] = test system: Cryptococcus neoformans ATCC 32045
[42] = test system: Escherichia coli ATCC 2592

Compound: CC[C@H](C)[C@H](NC(=O)[C@H](CCCN=C(N)N)NC(=O)[C@H](C)NC(=O)[C@H](C)N)C(=O)N[C@H](C(=O)N[C@@H](CC(C)C)C(=O)N[C@@H](CCCN=C(N)N)C(=O)N[C@@H](Cc1c[nH]c2ccccc12)C(=O)N[C@@H](CCCN=C(N)N)C(=O)N[C@@H](Cc1ccccc1)C(=O)N[C@@H](CCCN=C(N)N)C(N)=O)[C@@H](C)CC [AARIILRWRFR]
MIC [1]: 2 µM (≈ 2.91 µg/mL) | MIC [2]: 2 µM (≈ 2.91 µg/mL) | MIC [3]: 4 µM (≈ 5.83 µg/mL) | MIC [4]: 2 µM (≈ 2.91 µg/mL) | MIC [5]: 2 µM (≈ 2.91 µg/mL) | MIC [6]: 2 µM (≈ 2.91 µg/mL) | MIC [7]: 4 µM (≈ 5.83 µg/mL) | MIC [8]: 1 µM (≈ 1.46 µg/mL) | MIC [9]: 4 µM (≈ 5.83 µg/mL) | MIC [10]: 2 µM (≈ 2.91 µg/mL) | MIC [11]: 1 µM (≈ 1.46 µg/mL) | MIC [12]: 4 µM (≈ 5.83 µg/mL) | MIC [13]: 4 µM (≈ 5.83 µg/mL)

Compound: CC[C@H](C)[C@H](NC(=O)CNC(=O)[C@H](CCC(N)=O)NC(=O)[C@H](CO)NC(=O)[C@@H](NC(=O)[C@H](CCCCN)NC(=O)[C@H](CCCCN)NC(=O)[C@H](CC(C)C)NC(=O)[C@H](C)NC(=O)[C@H](CC(N)=O)NC(=O)[C@H](CC(C)C)NC(=O)[C@H](C)N)C(C)C)C(=O)N[C@@H](Cc1cnc[nH]1)C(=O)N[C@@H](CCC(=O)O)C(=O)N[C@@H](C)C(=O)N[C@H](C(=O)N[C@@H](CCCCN)C(=O)N[C@@H](CC(C)C)C(=O)N[C@H](C(=O)N[C@@H](C)C(=O)N[C@@H](CC(N)=O)C(=O)N[C@@H](Cc1cnc[nH]1)C(=O)N[C@H](C(=O)N[C@@H](CCC(N)=O)C(N)=O)C(C)C)[C@@H](C)CC)[C@@H](C)CC [ALNALKKVSQGIHEAIKLIANHVQ]
MIC [1]: 16 µM (≈ 41.5 µg/mL) | MIC [14]: ≥ 32 µM | MIC [15]: ≥ 32 µM | MIC [16]: ≥ 32 µM | MIC [17]: 16 µM (≈ 41.5 µg/mL) | MIC [18]: ≥ 32 µM | MIC [19]: 16 µM (≈ 41.5 µg/mL) | MIC [20]: ≥ 32 µM | MIC [21]: ≥ 32 µM | MIC [9]: 8 µM (≈ 20.8 µg/mL) | MIC [22]: 8 µM (≈ 20.8 µg/mL) | MIC [23]: 16 µM (≈ 41.5 µg/mL) | MIC [24]: 8 µM (≈ 20.8 µg/mL) | MIC [25]: 16 µM (≈ 41.5 µg/mL)

Compound: CC[C@H](C)[C@H](N)C(=O)N[C@@H](CS)C(=O)N[C@@H](CCCN=C(N)N)C(=O)N[C@@H](CCCCN)C(=O)N1CCC[C@H]1C(=O)N[C@H](C(=O)N[C@H](C(=O)N[C@@H](CS)C(=O)N[C@@H](CCCN=C(N)N)C(=O)N[C@@H](CCCCN)C(=O)N1CCC[C@H]1C(=O)N[C@H](C(N)=O)[C@@H](C)CC)[C@@H](C)CC)[C@@H](C)CC [ICRKPIICRKPI]
MIC [32]: > 64 µM | MIC [3]: ≥ 64 µM | MIC [33]: ≥ 64 µM | MIC [34]: ≥ 64 µM | MIC [5]: > 64 µM | MIC [8]: > 64 µM | MIC [35]: > 64 µM | MIC [22]: 64 µM (≈ 92.1 µg/mL) | MIC [11]: > 64 µM | MIC [36]: ≥ 64 µM | MIC [13]: ≥ 64 µM | MIC [37]: > 64 µM

Compound: NCCCC[C@H](NC(=O)[C@H](Cc1ccccc1)NC(=O)[C@H](Cc1ccccc1)NC(=O)[C@H](CCCCN)NC(=O)[C@H](CCCCN)NC(=O)[C@H](Cc1ccccc1)NC(=O)[C@H](Cc1ccccc1)NC(=O)[C@H](CCCCN)NC(=O)[C@H](CCCCN)NC(=O)[C@H](Cc1ccccc1)NC(=O)[C@H](Cc1ccccc1)NC(=O)[C@H](CCCCN)NC(=O)[C@H](CCCCN)NC(=O)[C@H](Cc1ccccc1)NC(=O)[C@H](Cc1ccccc1)NC(=O)[C@H](CCCCN)NC(=O)[C@H](CCCCN)NC(=O)[C@H](Cc1ccccc1)NC(=O)[C@H](Cc1ccccc1)NC(=O)[C@H](CCCCN)NC(=O)[C@H](CCCCN)NC(=O)[C@H](Cc1ccccc1)NC(=O)[C@H](Cc1ccccc1)NC(=O)[C@H](CCCCN)NC(=O)[C@H](CCCCN)NC(=O)[C@H](Cc1ccccc1)NC(=O)[C@H](Cc1ccccc1)NC(=O)[C@@H](N)CCCCN)C(=O)O [KFFKKFFKKFFKKFFKKFFKKFFKKFFK]
MIC [38]: 91.3 µM (≈ 354 µg/mL) | MIC [39]: ≥ 64.6 µM | MIC [40]: ≥ 32.3 µM | MIC [41]: 22.7 µM (≈ 88 µg/mL) | MIC [42]: ≥ 32.3 µM

Compound: CC[C@H](C)[C@H](NC(=O)[C@H](CC(C)C)NC(=O)[C@H](CCCCN)NC(=O)[C@@H](NC(=O)[C@H](C)NC(=O)[C@H](CCC(=O)O)NC(=O)[C@H](Cc1cnc[nH]1)NC(=O)[C@@H](NC(=O)CNC(=O)[C@H](CCC(N)=O)NC(=O)[C@H](Cc1ccccc1)NC(=O)[C@@H](NC(=O)[C@H](CCCCN)NC(=O)[C@H](CCCCN)NC(=O)[C@H](CC(C)C)NC(=O)[C@H](C)NC(=O)[C@H](CC(N)=O)NC(=O)[C@@H](N)CC(C)C)C(C)C)[C@@H](C)CC)[C@@H](C)CC)C(N)=O [LNALKKVFQGIHEAIKLI]
MIC [1]: 8 µM (≈ 16.3 µg/mL) | MIC [14]: 8 µM (≈ 16.3 µg/mL) | MIC [15]: 8 µM (≈ 16.3 µg/mL) | MIC [16]: 8 µM (≈ 16.3 µg/mL) | MIC [17]: 8 µM (≈ 16.3 µg/mL) | MIC [18]: 4 µM (≈ 8.14 µg/mL) | MIC [19]: 8 µM (≈ 16.3 µg/mL) | MIC [20]: 16 µM (≈ 32.6 µg/mL) | MIC [21]: 16 µM (≈ 32.6 µg/mL) | MIC [9]: 4 µM (≈ 8.14 µg/mL) | MIC [22]: 4 µM (≈ 8.14 µg/mL) | MIC [23]: 4 µM (≈ 8.14 µg/mL) | MIC [24]: 4 µM (≈ 8.14 µg/mL) | MIC [25]: 4 µM (≈ 8.14 µg/mL)

Results, then the compound that gave them:

MIC [26]: ≥ 64 µM | MIC [27]: ≥ 64 µM | MIC [28]: ≥ 128 µM | MIC [29]: ≥ 128 µM | MIC [9]: 128 µM (≈ 183 µg/mL) | MIC [30]: ≥ 256 µM | MIC [31]: ≥ 32 µM
Compound: CC(C)C[C@H](NC(=O)[C@H](C)N)C(=O)N[C@@H](Cc1c[nH]c2ccccc12)C(=O)N[C@@H](CCCCN)C(=O)N[C@@H](CO)C(=O)N[C@@H](CC(C)C)C(=O)N[C@@H](CC(C)C)C(=O)N[C@@H](CCCCN)C(=O)N[C@@H](CC(N)=O)C(=O)N[C@H](C(=O)NCC(=O)N[C@@H](CCCCN)C(=O)N[C@@H](C)C(N)=O)C(C)C [ALWKSLLKNVGKA]

MIC [38]: 260 µM (≈ 374 µg/mL) | MIC [39]: ≥ 347 µM | MIC [40]: ≥ 347 µM | MIC [41]: ≥ 123 µM | MIC [42]: ≥ 173 µM
Compound: C[C@H](NC(=O)[C@H](Cc1ccccc1)NC(=O)[C@H](CCCCN)NC(=O)[C@H](CCCCN)NC(=O)[C@H](C)NC(=O)[C@H](Cc1ccccc1)NC(=O)[C@H](CCCCN)NC(=O)[C@H](CCCCN)NC(=O)[C@H](C)NC(=O)[C@H](Cc1ccccc1)NC(=O)[C@@H](N)CCCCN)C(=O)N[C@@H](CCCCN)C(=O)O [KFAKKFAKKFAK]
